Reference: patent US20080070265A1, “PEPTIDE-BASED IMMUNIZATION THERAPY FOR TREATMENT OF ATHEROSCLEROSIS” (CARDIO VAX, priority 2003, published 2008)

System: apoE−/− mice
Experiment: Immunization of apoE−/− mice with peptide in Freund's adjuvant; size of atherosclerotic lesions in the proximal aorta
Type: in vivo
Settings: for effect of immunization on atherosclerosis: experimental animals (apoE−/− mice)
Method: It was hypothesized that the induction of protective immunity could depend on presentation of peptides derived from apoB100 and modified by adduct formation during oxidative modification of the LDL particle. Further, it was hypothesized that such peptides must have a sequence that (i) contains side chains susceptible to adduct formation, and (ii) permits them to bind to MHC class II molecules. The apoB100 sequence was analyzed to identify such motifs. […] A peptide containing this sequence was synthesized and used for immunization of apoE−/− mice. The effect on atherosclerosis was quantified by measuring the size of atherosclerotic lesions after 12 weeks.
8 week old female apoE−/− mice (B6, Apoe−/−, M&B, Ry, Denmark) were immunized with 100 μg of peptide SEQ. ID. NO. 1, and SEQ. ID. NO. 2, respectively, emulsified with Freund's complete adjuvant to a total volume of 50 μl. Mice were boosted after 2 and 4 weeks with 50 μg of peptide in Freund's incomplete adjuvant. A third group of mice consisting of age-matched male mice was injected according to the same scheme with phosphate-buffered saline (PBS) in adjuvant. 4 weeks after the last boost, mice were anesthetized with carbon dioxide and killed by exsanguination after cardiac puncture. After vascular perfusion with sterile RNase-free PBS, the heart and proximal aorta were removed, embedded in OCT compound, frozen and cryosectioned.
The size of atherosclerotic lesions in the proximal aorta was quantified by using Leica Qwin software (for details of the method, see Nicoletti et al., J. Clin. Invest. (1998)) Results were expressed as μm^2 average lesion area per cross-section, as well as relative lesion area, i.e., lesion area (μm^2) divided by total aortic cross-section area (μm^2). The Mann-Whitney U test used for comparisons between means.

“NH2-PTVMDFRKFSRNYQLYKSVSLPS-COOH (H-PTVMDFRKFSRNYQLYKSVSLPS-OH) [SEQ. ID. NO. 1, amino acids 625-647 of the human apoB100 protein]” was tested, and the “lesion size versus control mice injected with PBS/adjuvant alone” value (apoE−/− mice, FIG. 1) was “significantly smaller lesions”, the “lesion size versus mice immunized with peptide SEQ. ID. NO. 2” value (apoE−/− mice, FIG. 1) was “significantly smaller” and the “effect of immunization on atherosclerosis” value was “inhibition of atherosclerosis”. The “reduction in lesion size compared to PBS controls” value (female apoE−/− mice, 100 μg peptide in Freund's complete adjuvant, boosts of 50 μg after 2 and 4 weeks, proximal aorta, p<0.05) was 42% and the “reduction in lesion size compared with peptide SEQ. ID. NO. 2 immunized mice” value (female apoE−/− mice, same immunization scheme, proximal aorta, p<0.001) was 62%.
“NH2-YSKVHNGSEILFSYFQDLVIT-COOH (H-YSKVHNGSEILFSYFQDLVIT-OH) [SEQ. ID. NO. 2]” was tested, and the “effect of immunization on atherosclerosis” value was “aggravates atherosclerosis” and the “lesions larger than PBS controls” value (female apoE−/− mice, same immunization scheme, proximal aorta, p<0.05) was 36%.
